Results published in patent publication US20200062696A1, “COMPOSITIONS AND METHODS FOR INHIBITING RETICULON 4” (THE REGENTS OF THE UNIVERSITY OF CALIFORNIA, priority 2017, published 2020).
Entries after “also recorded” stand apart in the source; their conditions may differ.

Tests used:
[1] = system: U2OS osteosarcoma cells; assay: Serum-free cell survival of U2OS cells; assay type: cell-based; conditions: 50 μM, 48 h
Procedure: (§1) FIGS. 11A-11C. DKM 3-30 and analogs. (FIG. 11A) Structures of DKM 3-30 and analogs. (FIG. 11B) Gel-based ABPP analysis showing competition side-by-side competition studies of DKM 3-30, YP 1-46, and AMR 1-125 against IA-rhodamine labelling of pure human RTN4. Shown are the 50% inhibitory concentration (IC50) values for each compound. (FIG. 11C) Serum-free cell survival of U2OS (48 h) or SW620 (24 h) cells treated with DMSO vehicle or each compound (50 μM). Data in (C) are presented as mean±sem. Significance is expressed as *p<0.001 compared to vehicle-treated controls.
(§2) Cell Culture. SW620 cells were purchased from ATCC. SW620 cells were grown in L-15 media with 10% fetal bovine serum (FBS) in ambient CO2. U2OS cells were grown in DMEM media supplemented with 10% FBS at 37° C. with 5% CO2.
(§3) Survival and Proliferation Assays. Cells were plated the evening before the experiment, and allowed to adhere overnight. For serum-free cell survival assays, cells were plated in media not containing FBS. For cell proliferation assays, cells were plated in regular media. For the chemical genetics screen, cells were treated with either DMSO or the cysteine-reactive fragment for 48 h and cell viability was assessed by Hoescht stain using our previously described methods

[2] = system: SW620 colorectal cancer cells; assay: Serum-free cell survival of SW620 cells (Hoescht staining); assay type: cell-based; conditions: 50 μM, 24 h
[3] = molecular target: T1, pure human RTN4 protein (Homo sapiens, UniProt Q9NQC3); assay: Gel-based ABPP competition against IAyne labeling of pure human RTN4 protein; assay type: binding
T1 construct: purchased Fisher Scientific
T1 sequence (Q9NQC3 1-1192): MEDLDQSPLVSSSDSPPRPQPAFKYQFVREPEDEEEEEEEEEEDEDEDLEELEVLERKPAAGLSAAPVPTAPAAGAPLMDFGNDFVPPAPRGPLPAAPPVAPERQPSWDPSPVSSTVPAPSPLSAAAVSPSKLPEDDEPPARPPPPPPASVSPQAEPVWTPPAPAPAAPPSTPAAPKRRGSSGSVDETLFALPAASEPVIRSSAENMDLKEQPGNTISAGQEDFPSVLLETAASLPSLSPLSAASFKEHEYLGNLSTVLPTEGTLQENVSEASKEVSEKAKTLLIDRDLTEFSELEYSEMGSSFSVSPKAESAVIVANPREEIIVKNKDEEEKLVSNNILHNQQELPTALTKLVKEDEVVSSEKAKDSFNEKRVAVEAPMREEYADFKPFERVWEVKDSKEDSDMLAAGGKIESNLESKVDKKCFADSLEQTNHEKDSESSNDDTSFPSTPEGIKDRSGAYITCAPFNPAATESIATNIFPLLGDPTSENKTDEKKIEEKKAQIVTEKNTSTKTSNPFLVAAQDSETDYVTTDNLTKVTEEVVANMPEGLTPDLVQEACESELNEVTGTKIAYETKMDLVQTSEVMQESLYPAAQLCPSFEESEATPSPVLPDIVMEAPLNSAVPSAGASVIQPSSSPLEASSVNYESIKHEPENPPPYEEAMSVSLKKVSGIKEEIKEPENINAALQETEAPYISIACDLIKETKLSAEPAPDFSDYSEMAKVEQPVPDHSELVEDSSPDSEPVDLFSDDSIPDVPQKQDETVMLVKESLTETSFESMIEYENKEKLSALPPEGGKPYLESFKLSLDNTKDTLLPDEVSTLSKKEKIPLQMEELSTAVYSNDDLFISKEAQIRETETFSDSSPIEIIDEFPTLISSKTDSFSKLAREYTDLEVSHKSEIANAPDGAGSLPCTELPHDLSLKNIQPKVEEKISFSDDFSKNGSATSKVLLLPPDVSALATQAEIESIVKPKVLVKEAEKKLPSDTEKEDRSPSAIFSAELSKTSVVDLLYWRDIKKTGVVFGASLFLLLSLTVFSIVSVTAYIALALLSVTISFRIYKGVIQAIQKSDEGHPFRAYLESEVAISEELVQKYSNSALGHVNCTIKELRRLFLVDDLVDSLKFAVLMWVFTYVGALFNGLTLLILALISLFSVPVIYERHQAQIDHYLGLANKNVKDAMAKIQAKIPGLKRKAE
Procedure: as §1
Gel-Based ABPP. Gel-based ABPP methods were performed as previously described^24. Recombinant RTN4 (0.06 μg) protein (RTN4-Fisher Scientific) were pre-treated with DMSO or DKM 3-30, respectively, for 1 h at 37° C. in an incubation volume of 50 μL PBS, and were subsequently treated with IAyne (10 μM final concentration) for 30 min at 37° C. CuAAC was performed to append rhodamine-azide onto IAyne probe-labeled proteins. The samples were separated by SDS/PAGE and scanned using a ChemiDoc MP (Bio-Rad Laboratories, Inc). Inhibition of target labeling was assessed by densitometry using ImageStudio Light software.

[4] = system: U2OS cells expressing GFP-tagged Sec61β; assay: ER morphology by fluorescence microscopy in U2OS cells expressing GFP-Sec61β; assay type: cell-based; conditions: DKM 3-30 50 μM (8 hr, 16 hr, time-lapse); AMR 1-125 1 μM; YP 1-46 50 μM
Procedure: Fluorescence microscopy. SW620 and U2OS cells were transiently transfected with a plasmid encoding GFP-tagged Sec61β using fuGENE6 (Roche) according to the manufacturer's instructions. Transfected cells plated on poly-L-lysine treated coverslips were treated, washed in PBS, and fixed by incubation in 4% paraformaldehyde in PBS for 10 min. Fixed cells were washed extensively in PBS and nuclei stained by addition of 4′,6-diamidino-2-phenylindole (DAPI) (Thermo Fisher Scientific) for 10 min. Coverslips were mounted using Fluoromount-G (SouthernBiotech) and visualized using a DeltaVision Elite microscope outfitted with a 60× oil immersion objective. Acquired stacks of images of fixed cells were deconvolved and analyzed using SoftWoRx and ImageJ. For time-lapse imaging of live cells, transfected cells were plated on poly-L-lysine treated glass-bottom 4-well imaging chambers (Lab-Tek II; Thermo Fisher Scientific). Imaging was performed using a DeltaVision Elite microscope encased in a chamber that was maintained at 37° C. and was continuously perfused with humidified 5% CO2. Acquired images were analyzed using SoftWoRx and ImageJ.

[5] = system: SW620 colorectal cancer cells; assay: Cell proliferation of SW620 cells (Hoescht staining); assay type: cell-based; conditions: Homo sapiens, SW-620, cysteine-reactive fragment 50 μM, 48 h, vs DMSO, average of n = 3/group, read-out: SW620 proliferation Ave
Procedure: as §2, §3

[6] = system: SW620 colorectal cancer cells; assay: Serum-free cell survival of SW620 cells (Hoescht staining); assay type: cell-based; conditions: Homo sapiens, SW-620, cysteine-reactive fragment 50 μM, 48 h, vs DMSO, average of n = 3/group, read-out: SW620 survival Ave
Procedure: as §2, §3

| SMILES | activity at 50 µM [5] | viability at 50 µM [6] | also measured |
| --- | --- | --- | --- |
| C=CC(=O)Nc1ccc(Oc2ccc(C(C)(C)C)cc2)cc1 [AMR 1-125, N-(4-(4-(tert-butyl)phenoxy)phenyl)acrylamide] |  |  | cell survival in U2OS cells [1]: impaired; cell survival in SW620 cells [2]: impaired; improved potency compared to DKM 3-30 ([3]; competition against probe labelling of pure human RTN4, from IC50 values of FIG. 11B): ~7 fold; ER morphology in U2OS cells [4]: impaired; also recorded: alters ER morphology |
| C=CC(=O)Nc1ccc(Oc2ccc(OC)cc2)cc1 [YP 1-46, N-(4-(4-methoxyphenoxy)phenyl)acrylamide] |  |  | cell survival in U2OS cells [1]: not; displacement of IAyne labelling of RTN4 ([3]; pure human RTN4 protein, gel-based ABPP): less displacement; ER morphology in U2OS cells [4]: not |
| C=CC(=O)Nc1ccc(-c2ccc(CC)cc2)cc1 [DKM 3-16, N-(4′-ethyl-[1,1′-biphenyl]-4-yl)acrylamide] | 60% | 34% |  |
| C=CC(=O)NCc1ccccc1[N+](=O)[O-] [DKM 2-62, N-(2-nitrobenzyl)acrylamide] | 95% | 115% |  |
| C=CC(=O)Nc1ccc(SC)cc1 [DKM 3-10, N-(4-(methylthio)phenyl)acrylamide] | 79% | 41% |  |
| C=CC(=O)N1CCOCC1 [DKM 2-49, 1-morpholinoprop-2-en-1-one] | 109% | 80% |  |
| C=CC(=O)NCCCCCCCCCC [TRH 1-12, N-decylacrylamide] | 89% | 49% |  |
| C=CC(=O)NCCCC [DKM 2-102, N-butylacrylamide] | 133% | 124% |  |
| C=CC(=O)N1CCCC1 [DKM 2-48, 1-(pyrrolidin-1-yl)prop-2-en-1-one] | 85% | 90% |  |
| C=CC(=O)N(C1CCCCC1)C1CCCCC1 [DKM 2-114, N,N-dicyclohexylacrylamide] | 111% | 76% |  |
| C=CC(=O)NCc1ccc(C(F)(F)F)cc1 [DKM 2-116, N-(4-(trifluoromethyl)benzyl)acrylamide] | 90% | 123% |  |
| C=CC(=O)NCc1ccccc1C [TRH 1-54, N-(2-methylbenzyl)acrylamide] | 139% | 175% |  |
| C=CC(=O)NC(c1ccccc1)c1ccccc1 [DKM 3-4, N-benzhydrylacrylamide] | 120% | 122% |  |
| C=CC(=O)NC(C)CCc1ccccc1 (centres unmarked) [DKM 2-32, N-(4-phenylbutan-2-yl)acrylamide] | 114% | 91% |  |
| C=CC(=O)NCc1ccccc1 [DKM 2-31, N-benzylacrylamide] | 116% | 89% |  |
| C=CC(=O)NC1CCCCC1 [DKM 2-106, N-cyclohexylacrylamide] | 100% | 144% |  |
